Entries after “also recorded” stand apart in the source; their conditions may differ.
Key:
Patients with vitiligo [1] = assay: Clinical efficacy of topical bimatoprost solution for treatment of vitiligo: degree of repigmentation; format: in vivo, human; settings: for number of patients with Complete repigmentation (100%) / number of patients with Excellent repigmentation (75-99%) / number of patients with Marked repigmentation (50-74%) / number of patients with Moderate repigmentation (25-49%) / number of patients with Nil/mild repigmentation (less than 25%) / Repigmentation of body sites: number with Complete repigmentation (100%) / Repigmentation of body sites: number with Excellent repigmentation (75-99%) / Repigmentation of body sites: number with Marked repigmentation (50-74%) / Repigmentation of body sites: number with Moderate repigmentation (25-49%) / Repigmentation of body sites: number with Nil/mild repigmentation (less than 25%): 0.03% solution topically twice a day, 4 months
Experimental: 20 Patients with vitiligo were treated with topical bimatoprost solution for 4 months to elucidate its efficacy and tolerability in stable vitiligo. The solution contained bimatoprost in a concentration of 0.3 mg/mL (0.03%), benzalkonium chloride in a concentration of 0.05 mg/mL, and water. The solution has a pH of between 6.8 and 7.8, and contains sodium chloride, a dibasic sodium phosphate/citric acid buffer, and sodium hydroxide and/or hydrochloric acid to adjust the pH. The subjects had suffered from vitiligo for a period of between 8 and 80 months. The average period of depigmentation for the patients was 26.7 months. All the patients were examined by an independent observer. The percentage of repigmentation in form of color or size changes and folliculocentric/peripheral repigmentation were observed. […] Specifically, Nil/Mild repigmentation means that the skin has undergone less than 25% repigmentation, i.e., less than 25% of the skin surface has repigmented or, if repigmentation is observed, the skin has regained less than 25% of its natural color. Moderate repigmentation means that the skin has undergone 25-49% repigmentation, as measured by repigmented surface are and/or skin color. Marked repigmentation means that the skin has undergone 50-74% repigmentation, and excellent repigmentation means that the skin has undergone 75-99% repigmentation. Complete response means that repigmented skin lesions from vitiligo are indistinguishable from skin which has never been depigmented. The repigmentation effect of the composition starts rapidly within one to two months after starting the treatment. Topical treatment with bimatoprost is continued for a period of at least two months. If no response is observed to treatment with topical bimatoprost, treatment is stopped at the end of two months. If a mild or moderate response to treatment with topical bimatoprost is observed, therapy is continued for at least 4 months, while observing the patient for any further delayed improvement. In cases where complete or excellent response to topical bimatoprost is observed, treatment is stopped to determine whether relapse, i.e., whether loss of pigmentation is observed upon cessation of bimatoprost therapy. The frequency of application of the topical bimatoprost as an aqueous solution is twice a day.

[2] = cited from earlier work
Patients with vitiligo [3] = assay: Tolerability / side effects during therapy with topical bimatoprost; format: in vivo, human
Experimental: 20 Patients with vitiligo were treated with topical bimatoprost solution for 4 months to elucidate its efficacy and tolerability in stable vitiligo. The solution contained bimatoprost in a concentration of 0.3 mg/mL (0.03%), benzalkonium chloride in a concentration of 0.05 mg/mL, and water. The solution has a pH of between 6.8 and 7.8, and contains sodium chloride, a dibasic sodium phosphate/citric acid buffer, and sodium hydroxide and/or hydrochloric acid to adjust the pH.
All the patients were examined by an independent observer. The percentage of repigmentation in form of color or size changes and folliculocentric/peripheral repigmentation were observed.

[4] = site Mucosae (mucosal vitiligo or non-mucosal vitiligo progressed to mucosal surfaces)

CCNC(=O)CCCC=CCC1C(O)CC(O)C1C=CC(O)CCc1ccccc1 (centres unmarked) [bimatoprost, 7-[3,5-dihydroxy-2-(3-hydroxy-5-phenyl-pent-1-enyl)-cyclopentyl]-N-ethyl-hept-5-enamide]
number of patients with Complete repigmentation (100%) (Patients with vitiligo [1]; Segmental vitiligo): 1 | number of patients with Excellent repigmentation (75-99%) (Patients with vitiligo [1]; Segmental vitiligo): 2 | number of patients with Marked repigmentation (50-74%) (Patients with vitiligo [1]; Segmental vitiligo): 1 | number of patients with Moderate repigmentation (25-49%) (Patients with vitiligo [1]; Segmental vitiligo): 0 | number of patients with Nil/mild repigmentation (less than 25%) (Patients with vitiligo [1]; Segmental vitiligo): 0 | mean onset of pigmentation after initiation of therapy (Patients with vitiligo [1]; all patients): 2 months | patients treated with at least 50% repigmentation (Patients with vitiligo [1]; all patients treated): 75% | response of lesions, in words (Patients with vitiligo [1]; lesions on mucosal surfaces or on the extremities): respond poorly | vitiliginous lesions showing at least 50% repigmentation (Patients with vitiligo [1]; lesions on the face and neck): all vitiliginous lesions | vitiliginous lesions showing at least 50% repigmentation (Patients with vitiligo [1]; lesions on the trunk): 66% | repigmentation commencing after initiation of therapy (Patients with vitiligo [1]; new patients (vitiligo for 6 months or less)): four to six | patients in whom repigmentation was observed, number (Patients with vitiligo [1]; out of 20 patients, all types of vitiligo): 14 | repigmentation, in words (Patients with vitiligo [1]; remaining patients with generalized vitiligo): little or no repigmentation | patients exhibiting at least 50% repigmentation (at least marked) (Patients with vitiligo [1]; segmental or focal vitiligo): all patients | Repigmentation of body sites: number with Complete repigmentation (100%) (Patients with vitiligo [1]; site Extremities): 0 | Repigmentation of body sites: number with Excellent repigmentation (75-99%) (Patients with vitiligo [1]; site Extremities): 0 | Repigmentation of body sites: number with Marked repigmentation (50-74%) (Patients with vitiligo [1]; site Extremities): 0 | Repigmentation of body sites: number with Moderate repigmentation (25-49%) (Patients with vitiligo [1]; site Extremities): 2 | Repigmentation of body sites: number with Nil/mild repigmentation (less than 25%) (Patients with vitiligo [1]; site Extremities): 2 | Repigmentation of body sites: number with Complete repigmentation (100%) (Patients with vitiligo [1]; site Head & neck): 4 | Repigmentation of body sites: number with Excellent repigmentation (75-99%) (Patients with vitiligo [1]; site Head & neck): 4 | Repigmentation of body sites: number with Marked repigmentation (50-74%) (Patients with vitiligo [1]; site Head & neck): 2 | Repigmentation of body sites: number with Moderate repigmentation (25-49%) (Patients with vitiligo [1]; site Head & neck): 0 | Repigmentation of body sites: number with Nil/mild repigmentation (less than 25%) (Patients with vitiligo [1]; site Head & neck): 0 | Repigmentation of body sites: number with Complete repigmentation (100%) (Patients with vitiligo [1]; [4]): 0 | Repigmentation of body sites: number with Excellent repigmentation (75-99%) (Patients with vitiligo [1]; [4]): 0 | Repigmentation of body sites: number with Marked repigmentation (50-74%) (Patients with vitiligo [1]; [4]): 0 | Repigmentation of body sites: number with Moderate repigmentation (25-49%) (Patients with vitiligo [1]; [4]): 2 | Repigmentation of body sites: number with Nil/mild repigmentation (less than 25%) (Patients with vitiligo [1]; [4]): 2 | Repigmentation of body sites: number with Complete repigmentation (100%) (Patients with vitiligo [1]; site Trunk): 0 | Repigmentation of body sites: number with Excellent repigmentation (75-99%) (Patients with vitiligo [1]; site Trunk): 2 | Repigmentation of body sites: number with Marked repigmentation (50-74%) (Patients with vitiligo [1]; site Trunk): 2 | Repigmentation of body sites: number with Moderate repigmentation (25-49%) (Patients with vitiligo [1]; site Trunk): 0 | Repigmentation of body sites: number with Nil/mild repigmentation (less than 25%) (Patients with vitiligo [1]; site Trunk): 2 | start of the repigmentation effect after starting the treatment (Patients with vitiligo [1]; topical, twice a day): one to two | number of patients with Complete repigmentation (100%) (Patients with vitiligo [1]; vitiligo Vulgaris): 2 | number of patients with Excellent repigmentation (75-99%) (Patients with vitiligo [1]; vitiligo Vulgaris): 2 | number of patients with Marked repigmentation (50-74%) (Patients with vitiligo [1]; vitiligo Vulgaris): 1 | number of patients with Moderate repigmentation (25-49%) (Patients with vitiligo [1]; vitiligo Vulgaris): 0 | number of patients with Nil/mild repigmentation (less than 25%) (Patients with vitiligo [1]; vitiligo Vulgaris): 3 | repigmentation, in words (Patients with vitiligo [1]; vitiligo restricted to the mucosal surfaces or to the extremities): little or no repigmentation | patients exhibiting at least 50% repigmentation (at least marked) (Patients with vitiligo [1]; vitiligo vulgaris (generalized vitiligo)): More than 60% | solubility in water [2]: only slightly soluble; also recorded: very low | severe adverse reactions during the trial (Patients with vitiligo [3]; 20 patients, 0.03% solution topically, 4 months): No severe adverse reactions | most commonly observed side effect (Patients with vitiligo [3]; after application, especially on the lips): transient burning sensation | incidence of side-effects during therapy (Patients with vitiligo [3]; topical, 20 patients): 20% | severity of side effects (Patients with vitiligo [3]; topical, 20 patients): mild

Reference: patent US20120251613A1, “METHOD FOR TREATING VITILIGO WITH A PROSTAGLANDIN ANALOGUE” (AGILA SPECIALITIES PVT. LTD., priority 2011, published 2012)
